{"source": "patent EP0031221B1", "about": "“Cyclic peptide nuclei” (ELI LILLY AND COMPANY, priority 1979, dated 1981)", "key": {"physchem": {"assay": "physchem", "details": "66% aqueous dimethylformamide, pH 7.32"}, "Candida albicans A-26": {"system": "Candida albicans A-26", "assay": "Therapeutic activity against systemic C. albicans infection in mice", "format": "in vivo", "method": "The results of in vivo tests to evaluate the effectiveness of the derivatives against an infection caused by Candida albicans A-26 in mice are given in Table VII. In these tests activity is measured by the ED50 value (the dose in mg/kg required to cure 50% of the test animals). Where an ED50 value was not obtained, activity is indicated by the lowest dose at which a significant antifungal effect is observed. In these tests, groups of male albino mice (specific pathogen free), weighing 18 to 20 grams, are infected intravenously with Candida albicans A-26. The animals are X-irradiated 24 hours prior to infection at about 50 roentgens per minute for 8 minutes (400 total dose) to reduce immune responses to the infecting organism. At 0, 4, and 24 hours post infection each group of mice is given graded doses subcutaneously of the test compound as a suspension in 33% polyethylene glycol(PEG)-water. The day of death for each animal is recorded."}, "in vivo": {"assay": "in vivo", "details": "mouse, po, 416 mg/kg", "procedure": "(§2) At time intervals, blood samples are taken from the orbital sinus and are assayed for antibiotic activity as follows: A 7-mm disc containing 20 ml of whole blood is placed on agar seeded with Aspergillus montevidensis A35137. After 40 hours incubation at 30°C, zones of inhibition from the blood samples are compared to a standard obtained from the test compound, and the amount of compound in the blood sample is calculated."}, "Neurospora crassa 846": {"system": "Neurospora crassa 846", "assay": "Agar-plate disc-diffusion test (zone of inhibition)", "format": "cell-based", "details": "methanol suspension 1 mg/ml, 7-mm disc, 24—48 hours at 25—37°C, * = distinct zone with regrowth of organism around disc", "method": "(§1) In Table IV activity is measured by the size (diameter in mm) of the observed zone of inhibition of the microorganism produced by the test compound. In Table V activity is measured by the minimal inhibitory concentration (MIC) of the substance (mg/disc) required to inhibit growth of the test organism. Table VI gives the results of the testing in vitro of the p-(n-octyloxy)benzoyl derivative of A-30912A nucleus against five strains of Candida albicans by the agar-dilution method. In Table VI activity is measured by the minimal inhibitory concentration (MIC) of the substance (mg/ml) required to inhibit the test organism."}, "[1]": {"system": "Saccharomyces pastorianus X—52", "assay": "Agar-plate disc-diffusion test (zone of inhibition)", "format": "cell-based", "details": "methanol suspension 1 mg/ml, 7-mm disc, incubation 24—48 hours at 25—37°C", "method": "as §1"}, "[2]": {"system": "Trichophyton mentagrophytes A—23", "assay": "Agar-plate disc-diffusion test (zone of inhibition)", "format": "cell-based", "details": "read-out: Size of Zone of Inhibition (mm)", "method": "as §1"}, "[3]": {"assay": "Blood levels after oral administration in mice (bioassay vs. Aspergillus montevidensis)", "details": "mouse, 416 mg/kg", "procedure": "as §2"}, "Candida albicans [4]": {"system": "Candida albicans", "assay": "Agar-dilution MIC against five Candida albicans strains", "format": "cell-based", "details": "agar-dilution method", "method": "as §1"}, "Candida albicans [5]": {"system": "Candida albicans", "details": "characteristics from German Offenlegungschrift 2,628,965 / U.S. Patent 4,173,629; cited from earlier work"}, "[6]": {"details": "Candida albicans, A26, light or radiation study, sc, X-irradiated mice infected i.v. with C. albicans A-26, subcutaneous doses at 0, 4 and 24 hours, lowest dose with significant antifungal effect (survival time), read-out: Lowest Active Dose"}, "[7]": {"details": "Candida albicans, A26, light or radiation study, sc, X-irradiated mice infected i.v. with C. albicans A-26, subcutaneous doses at 0, 4 and 24 hours post infection, suspension in PEG-water, dose curing 50% of animals, read-out: ED50"}, "[8]": {"details": "Neurospora crassa 846, read-out: Size of Zone of Inhibition (mm)"}, "[9]": {"details": "Saccharomyces pastorianus X—52, read-out: Size of Zone of Inhibition (mm)"}}, "note": "Read-outs that look alike come from different tables or passages of the source. Starred links: 1 amine or outer side, 2 acyl side, 3 side chain; linkers in the order of their positions; H or OH if unused. Positions of bridges follow the written chain, without caps; N, C: chain ends. Non-standard residues stand in square brackets, D forms with d. Residues, ends and D or L forms follow the SMILES beside them. *: point of attachment. Orn(4R-OH,5R-OH) = O=C([C@H](C[C@@H](O)[C@@H](O)N[*:3])N[*:1])[*:2]; hTyr(3S-OH,4S-OH) = N[C@H](C(=O)O)[C@H](O)[C@@H](O)c1ccc(O)cc1; Pro(3S-OH,4S-Me) = C[C@H]1CN[C@H](C(=O)O)[C@H]1O; Benzoyl(4-octyloxy) = CCCCCCCCOc1ccc(C(=O)*)cc1; Gln(3R-OH) = NC(=O)C[C@@H](O)[C@H](N)C(=O)O; Hyp = O=C(O)[C@@H]1C[C@@H](O)CN1; Tridecanoyl = CCCCCCCCCCCCC(=O)*; Myristoyl = CCCCCCCCCCCCCC(=O)*; Lauroyl = CCCCCCCCCCCC(=O)*; 4Abz = Nc1ccc(C(=O)O)cc1", "data": [{"compound": "C[C@@H](O)[C@@H]1NC(=O)[C@H]([C@H](O)[C@@H](O)c2ccc(O)cc2)NC(=O)[C@@H]2C[C@@H](O)CN2C(=O)[C@H]([C@@H](C)O)NC(=O)[C@@H](N)C[C@@H](O)[C@@H](O)NC(=O)[C@@H]2[C@@H](O)[C@@H](C)CN2C1=O", "note": "[A-30912A nucleus] (H-[Orn(4R-OH,5R-OH)]T[Hyp][hTyr(3S-OH,4S-OH)]T[Pro(3S-OH,4S-Me)]; lactam 1-C)", "values": [{"measurement": "pKa", "setting": "physchem", "result": "~7.35"}]}, {"compound": "CCCCCCCCCCCCC(=O)N[C@H]1C[C@@H](O)[C@@H](O)NC(=O)[C@@H]2[C@@H](O)[C@@H](C)CN2C(=O)[C@H]([C@@H](C)O)NC(=O)[C@H]([C@H](O)[C@@H](O)c2ccc(O)cc2)NC(=O)[C@@H]2C[C@@H](O)CN2C(=O)[C@H]([C@@H](C)O)NC1=O", "note": "[Reference Example 1] (Tridecanoyl-[Orn(4R-OH,5R-OH)]T[Hyp][hTyr(3S-OH,4S-OH)]T[Pro(3S-OH,4S-Me)]; lactam 1-C)", "values": [{"measurement": "minimal effective dose", "setting": "Candida albicans A-26; [6]", "result": 20, "unit": "mg/kg"}, {"measurement": "ED50", "setting": "Candida albicans A-26; [7]", "result": 34, "unit": "mg/kg"}, {"measurement": "concentration at 4 h", "setting": "in vivo", "result": 100, "unit": "µg/mL"}, {"measurement": "zone of inhibition at 1000 µg/mL", "setting": "Neurospora crassa 846; [8]", "result": 32, "unit": "mm"}, {"measurement": "zone of inhibition at 1000 µg/mL", "setting": "[1]; [9]", "result": 21, "unit": "mm"}, {"measurement": "zone of inhibition at 1000 µg/mL", "setting": "[2]; Trichophyton mentagrophytes A—23, methanol suspension 1 mg/ml, 7-mm disc, 24—48 hours at 25—37°C, * = distinct zone with regrowth of organism around disc", "result": 60, "unit": "mm"}]}, {"compound": "CCCCCCCCCCCC(=O)Nc1ccc(C(=O)N[C@H]2C[C@@H](O)[C@@H](O)NC(=O)[C@@H]3[C@@H](O)[C@@H](C)CN3C(=O)[C@H]([C@@H](C)O)NC(=O)[C@H]([C@H](O)[C@@H](O)c3ccc(O)cc3)NC(=O)[C@@H]3C[C@@H](O)CN3C(=O)[C@H]([C@@H](C)O)NC2=O)cc1", "note": "[Reference Example 7, N-(n-dodecanoyl)-p-aminobenzoyl derivative of A-30912A nucleus] ({Lauroyl-4Abz}-[Orn(4R-OH,5R-OH)]T[Hyp][hTyr(3S-OH,4S-OH)]T[Pro(3S-OH,4S-Me)]; lactam 1-C)", "values": [{"measurement": "ED50", "setting": "Candida albicans A-26; Candida albicans, A26, light or radiation study, sc", "result": 15, "unit": "mg/kg"}, {"measurement": "minimal effective dose", "setting": "Candida albicans A-26; Candida albicans, A26, light or radiation study, sc, read-out: Lowest Active Dose (mg/kg), X-irradiated mice infected i.v. with C. albicans A-26, subcutaneous doses at 0, 4 and 24 hours, lowest dose with significant antifungal effect (survival time)", "result": 10, "unit": "mg/kg"}, {"measurement": "concentration at 4 h", "setting": "[3]", "result": 830, "unit": "µg/mL"}, {"measurement": "zone of inhibition at 1000 µg/mL", "setting": "Neurospora crassa 846; Neurospora crassa, 846, 48 h, read-out: Size of Zone of Inhibition (mm), Neurospora crassa 846", "result": 33, "unit": "mm"}, {"measurement": "zone of inhibition at 1000 µg/mL", "setting": "[1]; Saccharomyces pastorianus, 48 h, read-out: Size of Zone of Inhibition (mm), Saccharomyces pastorianus X—52", "result": 21, "unit": "mm"}, {"measurement": "zone of inhibition at 1000 µg/mL", "setting": "[2]; Trichophyton mentagrophytes, 48 h", "result": 55, "unit": "mm"}]}, {"compound": "CCCCCCCCOc1ccc(C(=O)N[C@H]2C[C@@H](O)[C@@H](O)NC(=O)[C@@H]3[C@@H](O)[C@@H](C)CN3C(=O)[C@H]([C@@H](C)O)NC(=O)[C@H]([C@H](O)[C@@H](O)c3ccc(O)cc3)NC(=O)[C@@H]3C[C@@H](O)CN3C(=O)[C@H]([C@@H](C)O)NC2=O)cc1", "note": "[Reference Example 13, p-(n-octyloxy)benzoyl derivative of A-30912A nucleus] ({Benzoyl(4-octyloxy)}-[Orn(4R-OH,5R-OH)]T[Hyp][hTyr(3S-OH,4S-OH)]T[Pro(3S-OH,4S-Me)]; lactam 1-C)", "values": [{"measurement": "minimal effective dose", "setting": "Candida albicans A-26; [6]", "result": 10, "unit": "mg/kg"}, {"measurement": "ED50", "setting": "Candida albicans A-26; [7]", "result": 13, "unit": "mg/kg"}, {"measurement": "ED50", "setting": "Candida albicans A-26; X-irradiated mice infected i.v. with C. albicans A-26, subcutaneous doses at 0, 4 and 24 hours post infection, suspension in PEG-water, dose curing 50% of animals", "result": 22.2, "unit": "mg/kg"}, {"measurement": "Lowest Active Dose", "setting": "Candida albicans A-26; X-irradiated mice infected i.v. with C. albicans A-26, subcutaneous doses at 0, 4 and 24 hours, lowest dose with significant antifungal effect (survival time)", "result": ">12.5", "unit": "mg/kg"}, {"measurement": "concentration at 4 h", "setting": "[3]", "result": 23000, "unit": "µg/mL"}, {"measurement": "MIC", "setting": "Candida albicans [4]; Candida albicans strain A26, read-out: MIC", "result": 0.312, "unit": "µg/mL"}, {"measurement": "MIC", "setting": "Candida albicans [4]; Candida albicans strain SBH 16", "result": 0.312, "unit": "µg/mL"}, {"measurement": "MIC", "setting": "Candida albicans [4]; Candida albicans strain SBH 28", "result": 0.312, "unit": "µg/mL"}, {"measurement": "MIC", "setting": "Candida albicans [4]; Candida albicans strain SBH 29", "result": 0.312, "unit": "µg/mL"}, {"measurement": "MIC", "setting": "Candida albicans [4]; Candida albicans strain SBH 31", "result": 0.312, "unit": "µg/mL"}, {"measurement": "zone of inhibition at 1000 µg/mL", "setting": "Neurospora crassa 846; [8]", "result": 23, "unit": "mm"}, {"measurement": "zone of inhibition at 1000 µg/mL", "setting": "[1]; [9]", "result": 18, "unit": "mm"}]}, {"compound": "CCCCCCCCCCCCCC(=O)N[C@H]1C[C@@H](O)[C@@H](O)NC(=O)[C@@H]2[C@@H](O)[C@@H](C)CN2C(=O)[C@H]([C@H](O)CC(N)=O)NC(=O)[C@H]([C@H](O)[C@@H](O)c2ccc(O)cc2)NC(=O)[C@@H]2C[C@@H](O)CN2C(=O)[C@H]([C@@H](C)O)NC1=O", "note": "[S 31794/F-1] (Myristoyl-[Orn(4R-OH,5R-OH)]T[Hyp][hTyr(3S-OH,4S-OH)][Gln(3R-OH)][Pro(3S-OH,4S-Me)]; lactam 1-C)", "values": [{"measurement": "antifungal activity", "setting": "Candida albicans [5]", "result": "has antifungal activity, especially against Candida albicans"}]}]}
